Experimental data: PubChem BioAssay AID2060882 (Molecular Pharmacology Branch, DTP, NCI, 2025)

Test system: 898857-211-R-J1-PDC complex spheroids, growth % test/control
Assay: Anticancer human tumor 898857-211-R-J1-PDC patient-derived melanoma cell line growth inhibition [RAS]
Conditions: for IC50: curve of first compound; for viability, T/C: stronger effect = lower value
Procedure, shortened: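 Multi-cell-type spheroids: tumor cells plus HUVEC endothelial cells and mesenchymal stem cells. RAS-pathway inhibitors were combined with targeted agents, each dosed in half-log steps down from clinical Cmax, or from 10 microM when Cmax was unknown.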
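Further: spheroids exposed to compound for seven days before readout.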
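Wherever viability, T/C is given: 100% = DMSO vehicle control wells.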

Compound: CCc1c2c(nc3ccc(O)cc13)-c1cc3c(c(=O)n1C2)COC(=O)[C@]3(O)CC + CCn1c(-c2cccnc2C(C)OC)c2c3cc(ccc31)N1CCOC(CC(NC(=O)C(C(C)C)N(C)C(=O)C3(F)CCN(C(=O)C#CC(C)(C)N(C)C)CC3)C(=O)N3CCCC(N3)C(=O)OCC(C)(C)C2)C1
- IC50 (second compound 0.000949 µM): 5.13 nM
- IC50 (second compound 0.003 µM): 4.91 nM
- IC50 (second compound 0.00949 µM): 4.21 nM
- IC50 (second compound 0.03 µM): 3.8 nM
- IC50 (second compound 0.0949 µM): 3.54 nM
- IC50 (second compound 0.3 µM): 2.75 nM
- viability, T/C (second compound 0.000949 µM, first compound 0.000949 µM): 103%
- viability, T/C (second compound 0.000949 µM, first compound 0.003 µM): 66.7%
- viability, T/C (second compound 0.000949 µM, first compound 0.00949 µM): 31.6%
- viability, T/C (second compound 0.000949 µM, first compound 0.03 µM): 10.2%
- viability, T/C (second compound 0.000949 µM, first compound 0.0949 µM): 7.77%
- viability, T/C (second compound 0.000949 µM, first compound 0.3 µM): 6.78%
- viability, T/C (second compound 0.003 µM, first compound 0.000949 µM): 92.2%
- viability, T/C (second compound 0.003 µM, first compound 0.003 µM): 64.1%
- viability, T/C (second compound 0.003 µM, first compound 0.00949 µM): 31.5%
- viability, T/C (second compound 0.003 µM, first compound 0.03 µM): 11.2%
- viability, T/C (second compound 0.003 µM, first compound 0.0949 µM): 6.86%
- viability, T/C (second compound 0.003 µM, first compound 0.3 µM): 5.62%
- viability, T/C (second compound 0.00949 µM, first compound 0.000949 µM): 91.5%
- viability, T/C (second compound 0.00949 µM, first compound 0.003 µM): 58.2%
- viability, T/C (second compound 0.00949 µM, first compound 0.00949 µM): 30.2%
- viability, T/C (second compound 0.00949 µM, first compound 0.03 µM): 11.7%
- viability, T/C (second compound 0.00949 µM, first compound 0.0949 µM): 6.64%
- viability, T/C (second compound 0.00949 µM, first compound 0.3 µM): 7.62%
- viability, T/C (second compound 0.03 µM, first compound 0.000949 µM): 88.5%
- viability, T/C (second compound 0.03 µM, first compound 0.003 µM): 55.3%
- viability, T/C (second compound 0.03 µM, first compound 0.00949 µM): 28.3%
- viability, T/C (second compound 0.03 µM, first compound 0.03 µM): 9.56%
- viability, T/C (second compound 0.03 µM, first compound 0.0949 µM): 7.6%
- viability, T/C (second compound 0.03 µM, first compound 0.3 µM): 5.55%
- viability, T/C (second compound 0.0949 µM, first compound 0.000949 µM): 77.6%
- viability, T/C (second compound 0.0949 µM, first compound 0.003 µM): 52.6%
- viability, T/C (second compound 0.0949 µM, first compound 0.00949 µM): 29.5%
- viability, T/C (second compound 0.0949 µM, first compound 0.03 µM): 8.59%
- viability, T/C (second compound 0.0949 µM, first compound 0.0949 µM): 6.88%
- viability, T/C (second compound 0.0949 µM, first compound 0.3 µM): 5.75%
- viability, T/C (second compound 0.3 µM, first compound 0.000949 µM): 65.3%
- viability, T/C (second compound 0.3 µM, first compound 0.003 µM): 48.6%
- viability, T/C (second compound 0.3 µM, first compound 0.00949 µM): 20.1%
- viability, T/C (second compound 0.3 µM, first compound 0.03 µM): 7.15%
- viability, T/C (second compound 0.3 µM, first compound 0.0949 µM): 8.16%
- viability, T/C (second compound 0.3 µM, first compound 0.3 µM): 5.2%
